The test addresses T1, human GnRH receptor (Homo sapiens, UniProt P30968).
T1 construct: The cDNA for the human GnRH receptor is cloned into the plasmid expression vector, pcDNA 3; expressed in transfected cells; host or cells: HEK 293 cells, stably transfected (pcDNA 3); membrane preparation
T1 sequence (P30968 1-328): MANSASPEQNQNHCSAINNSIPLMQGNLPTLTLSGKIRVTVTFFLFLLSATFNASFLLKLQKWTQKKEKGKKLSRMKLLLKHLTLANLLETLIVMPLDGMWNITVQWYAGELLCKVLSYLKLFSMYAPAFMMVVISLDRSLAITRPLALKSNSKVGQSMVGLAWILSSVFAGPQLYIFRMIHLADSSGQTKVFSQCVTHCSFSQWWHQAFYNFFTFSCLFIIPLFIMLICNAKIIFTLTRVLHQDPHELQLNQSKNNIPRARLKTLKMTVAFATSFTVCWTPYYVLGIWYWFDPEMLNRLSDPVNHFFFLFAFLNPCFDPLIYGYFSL
Nature of the test: GnRH receptor competitive radioligand binding assay (125I-GnRH-A, HEK 293 cell membranes). Particulars: compound at 10 μM. From the text:
The cDNA for the human GnRH receptor is cloned into the plasmid expression vector, pcDNA 3 (In Vitrogen), and stably transfected in HEK 293 cells (a cell line developed by Dr. Stuart Sealfon, Mount Sinai Medical School, New York, N.Y.).
The human GnRH receptor (hGnRH) is cloned into pcDNA 3 (In Vitrogen), which provides high-level expression and a neomycin resistance marker. Lipofectamine (GIBCO BRL) is used to transfect HEK 293 cells with plasmid DNA. This method involves mixing the plasmid and reagent in serum-free medium, allowing DNA-liposome complexes to form, and overlaying cells with this solution. The HEK 293 cells are plated (seeded) on a 10-cm tissue culture dish at a density of 3×10^6 cells/dish the day before transfection. For each plate, 8 μg DNA plus 0.8 mL serum-free medium is mixed with 48 μL lipofectamine plus 0.8 mL serum-free medium, followed by incubation for 30 minutes at room temperature to allow DNA-liposome complexes to form. Serum-free medium is added to give a final volume of 6 mL/plate. The cells are rinsed twice with serum-free medium and overlayed with the DNA-liposome mixture. Five hours after transfection, an equal volume (6 mL) of medium containing 20% FBS (fetal bovine serum) is added. The cells are fed with fresh complete medium 18-24 hours after transfection. The cells are split 72 hours following transfection, at densities of 1:10 and 1:20. Stable tranformants are selected for by growth of the cells in antibiotic containing medium (G418, Sigma Chemical Company (also known as Geneticin)). Colonies are isolated and tested for receptor expression by radioligand binding and by measuring phosphoinositol turnover.
HEK 293 cells stably transfected with human GnRH receptors as described above are grown in MEM (minimal essential medium, available from Sigma Chemical Company) supplemented with 0.1% G418 (Sigma Chemical Company). Cells are homogenized in buffer A containing 50 mM Tris (pH 74.), 0.32M sucrose, 2 mM ethyleneglycol-bis(β-aminoethyl)-N,N,N′,N′-tetraacetic acid (EGTA), 1 mM phenylmethylsulfonyl fluoride (PMSF), 5 μg/mL aprotinen, 5 μg/mL Pepstatin A, and 1 μg/mL leupeptin. The homogenized cells are centrifuged at 4° C. at 20,000×g for 25 minutes, resuspended in buffer A, and recentrifuged at 4° C. at 20,000×g for an additional 25 minutes. Total membrane protein is determined with a BCA kit (Pierce, Rockford, Ill.). Membranes are stored at −70° C. at a final membrane protein concentration of 5 mg/mL.
The radioiodinated agonist analog of GnRH, [des-Gly^10, D-Ala^8]GnRH ethylamide (GnRH-A), is used as the labeled ligand. One μg of GnRH-A diluted in 0.1M acetic acid is added to an lodogen®-coated borosilicate glass tube pierce) containing 35 μL of 0.05M phosphate buffer (pH 7.4-7.6) and 1 mCi of Na[^125I]. The reaction mixture is vortexed and incubated for 1 minute at room temperature. After one minute, the mixture is vortexed again and allowed to incubate for an additional minute. Two mL of 0.5M acetic acid/1% BSA is added to the reaction tube, and the mixture is added to a C18 Sep-Pak cartridge. The cartridge is washed with subsequent washes of 5 mL H2O and 5 mL 0.5M acetic acid, and then eluted with 5×1 mL of 60% CH3CN/40% 0.5M acetic acid. The eluant is diluted with 3×volume of HPLC buffer A (0.1% TFA in H2O) and loaded onto a C18 column. The iodinated product is eluted over 20-25 minutes with a gradient of 25-100% CH3CN containing 0.1% TFA. The radioactive fractions (750 μL/fraction) are collected into clean polypropylene tubes containing 10 μL of 10% BSA. Fractions are assessed for biological activity by radioligand binding. Active fractions are utilized to screen the compounds for competitive binding assays.
HEK 293 cell membranes stably expressing hGnRHR (human GnRH receptors) are diluted to 0.5-1.0 mg/mL with assay buffer containing 50 mM HEPES (pH 7.4), 1 mM ethylenediarninetetraacetic acid (EDTA), 2.5 mM MgCl2, and 0.1% BSA. […]

The mark [1] stands for this setting: average of 1st and 2nd test, read-out: Average % Remaining (percent of specific binding remaining).
[2] abbreviates: crude compounds, 125I-GnRH-A, lower value = higher inhibition, read-out: % Remaining 1st Test (percent of specific binding remaining).
Where [3] appears, read: crude compounds, 125I-GnRH-A, lower value = higher inhibition, read-out: % Remaining 2nd Test (percent of specific binding remaining).

Read-outs that look alike come from different tables or passages of the source.

The results in this text go back to US6646137B1, “Non-peptide GnRH agents” (priority 1998, dated 2003).

For the compound `N=C(N)NCc1ccc(CN(Cc2ccc(OCc3ccccc3)c(OCc3ccccc3)c2)C(=O)c2ccccc2)cc1` [Compound 19], the remaining activity at 10 µM reads like this: under setting [1], 45%; under setting [2], 47%; under setting [3], 42%.
Taken in the same sequence, the figures for `CC(C)(C)c1ccc(CN(CCCCNC(=N)N)C(=O)c2ccc3ccccc3c2)cc1` [Compound 24] were 56%, 58% and 58%.
Taken in the same sequence, the figures for `N=C(N)NCc1cccc(CN(CC23CC=CCC2C2CC=CCC2O3)C(=O)c2ccc3ccccc3c2)c1` (stereo not drawn) [Compound 39] were 46%, 46% and 45%.
Taken in the same sequence, the figures for `N=C(N)NCC1CCCC(CN(CC23CC=CCC2C2CC=CCC2O3)C(=O)c2cccc3ccccc23)C1` (stereo not drawn) [Compound 47] were 42%, 39% and 44%.
In the case of `Cc1cc2c(cc1CN(CCCCNC(=N)N)C(=O)c1ccc(Cl)nc1)C(C)(C)CCC2(C)C` [Compound 32], the remaining activity at 10 µM under setting [1] was found to be 57%, the remaining activity at 10 µM under setting [2] is 52% and the remaining activity at 10 µM under setting [3] stood at 61%.
Taken in the same sequence, the figures for `Cc1cc2c(cc1CN(CC1CCCC(CNC(=N)N)C1)C(=O)c1ccc3ccccc3c1)C(C)(C)CCC2(C)C` (stereo not drawn) [Compound 54] were 54%, 49% and 59%.
`CN(C)Cc1ccc(CN(CC2C=CCC3C4CC=CCC4OC23)C(=O)c2ccc3ccccc3c2)cc1` (stereo not drawn) [Compound 68]: the remaining activity at 10 µM is, setting by setting: under setting [1], 48%; under setting [2], 61%; under setting [3], 44%.
On to `Cc1cc2c(cc1CN(CCCCNC(=N)N)C(=O)c1ccccc1)C(C)(C)CCC2(C)C` [Compound 31], for which the remaining activity at 10 µM under setting [1] came out at 45%, the remaining activity at 10 µM under setting [2] was 44% and the remaining activity at 10 µM under setting [3] amounted to 45%.
With `N=C(N)NCC1CCC(CN(Cc2cc3c(cc2Cl)OCO3)C(=O)c2ccco2)CC1` (stereo not drawn) [Compound 86], the remaining activity at 10 µM is 51% under setting [1], 56% under setting [2] and 45% under setting [3].
Taken in the same sequence, the figures for `N=C(N)NCC1CCC(CN(Cc2cccc(Oc3ccc(Cl)cc3)c2)C(=O)c2ccc(Cl)nc2)CC1` (stereo not drawn) [Compound 76] were 60%, 60% and 60%.
Taken in the same sequence, the figures for `Cc1cc2c(cc1CN(Cc1cccc(CNC(=N)N)c1)C(=O)c1ccco1)C(C)(C)CCC2(C)C` [Compound 40] were 12%, 12% and 11%.
Taken in the same sequence, the figures for `Cc1cc2c(cc1CN(CCCCNC(=N)N)C(=O)c1cccc3ccccc13)C(C)(C)CCC2(C)C` [Compound 28] were 52%, 46% and 57%.
As to `CC(=O)N(CCCCNC(=N)N)Cc1ccc(OCc2ccccc2)c(OCc2ccccc2)c1` [Compound 35], the remaining activity at 10 µM by setting is: under setting [1], 52%; under setting [2], 50%; under setting [3], 54%.
Taken in the same sequence, the figures for `N=C(N)NCCCCN(CC12CC=CCC1C1CC=CCC1O2)C(=O)c1cccc2ccccc12` (stereo not drawn) [Compound 25] were 46%, 41% and 51%.
Taken in the same sequence, the figures for `N=C(N)NCC1CCCC(CN(CC23CC=CCC2C2CC=CCC2O3)C(=O)c2ccc(Cl)nc2)C1` (stereo not drawn) [Compound 49] were 58%, 53% and 62%.
Taken in the same sequence, the figures for `CCOc1cc(OCC)c(OCC)cc1CN(CC1CCC(CNC(=N)N)CC1)C(=O)c1ccco1` (stereo not drawn) [Compound 87] were 52%, 57% and 47%.
Turning to `CC(C)(C)c1ccc(CN(CCCCNC(=N)N)C(=O)c2cccc3ccccc23)cc1` [Compound 23], the remaining activity at 10 µM by setting is: under setting [1], 49%; under setting [2], 48%; under setting [3], 50%.
As to `N=C(N)NCC1CCCC(CN(Cc2cnc3ccccc3c2)C(=O)c2cccc3ccccc23)C1` (stereo not drawn) [Compound 50], the remaining activity at 10 µM under setting [1] came to 55%, the remaining activity at 10 µM under setting [2] came out at 47% and the remaining activity at 10 µM under setting [3] worked out at 62%.
Taken in the same sequence, the figures for `CCCCC(CC)C(=O)N(Cc1cc2c(cc1C)C(C)(C)CCC2(C)C)CC1CCC(CNC(=N)N)CC1` (stereo not drawn) [Compound 117] were 57%, 59% and 54%.
Taken in the same sequence, the figures for `N=C(N)NCC1CCCC(CN(Cc2cnc3ccccc3c2)C(=O)c2ccc3ccccc3c2)C1` (stereo not drawn) [Compound 51] were 56%, 48% and 63%.
Taken in the same sequence, the figures for `CC(=O)N(Cc1ccc(CNC(=N)N)cc1)Cc1ccc(OCc2ccccc2)c(OCc2ccccc2)c1` [Compound 21] were 49%, 46% and 51%.
`CC(=O)N(Cc1ccc(OCc2ccccc2)c(OCc2ccccc2)c1)CC1CCCC(CNC(=N)N)C1` (stereo not drawn) [Compound 63]: the remaining activity at 10 µM was determined as 48% under setting [1], 49% under setting [2] and 47% under setting [3].
Taken in the same sequence, the figures for `CN(C)CCCOc1ccc(CN(Cc2cccc(CNC(=N)N)c2)C(=O)c2ccc3ccccc3c2)cc1` [Compound 36] were 58%, 56% and 59%.
Consider `Cc1cc2c(cc1CN(CC1CCC(CNC(=N)N)CC1)C(=O)c1ccc(C#N)cc1)C(C)(C)CCC2(C)C` (stereo not drawn) [Compound 98], for which the remaining activity at 10 µM under setting [1] turned out to be 58%, the remaining activity at 10 µM under setting [2] is 58% and the remaining activity at 10 µM under setting [3] was 58%.
For `Cc1cc2c(cc1CN(CC1CCC(CNC(=N)N)CC1)C(=O)c1ccc(Cl)nc1)C(C)(C)CCC2(C)C` (stereo not drawn) [Compound 84], the remaining activity at 10 µM under setting [1] is 48%, the remaining activity at 10 µM under setting [2] was determined as 52% and the remaining activity at 10 µM under setting [3] turned out to be 44%.
`CN(C)Cc1ccc(CN(Cc2ccc(OCc3ccccc3)c(OCc3ccccc3)c2)C(=O)c2cccs2)cc1` [Compound 69]: the remaining activity at 10 µM under setting [1] came out at 57%, the remaining activity at 10 µM under setting [2] amounted to 59% and the remaining activity at 10 µM under setting [3] was found to be 54%.
